In patent publication US10449175B2, “Rinse-off chemical mousse containing benzoyl peroxide” (GALDERMA RESEARCH & DEVELOPMENT, priority 2014, dated 2019):

Experiment: Stability over time of foaming surfactants in formulation intermediate B with high sodium bicarbonate
Format: physicochemical
Conditions: incorporated in formulation intermediate B, high concentration of sodium bicarbonate
Description: The applicant company has known how to select a foaming surfactant which is stable over time in the presence of a high concentration of sodium bicarbonate. The following surfactants were tested in the mixture: Sodium C14-C16 Olefin Sulfonate sold by Clariant under the name Hostapur® OSB or else Hostapur® OS Liq but also Nansa® LSS 495-H sold by Huntsman, Rodacal LSS 80 RPB from Rhodia, BIO-Terge® AS-90 beads from Stepan, Sodium Cocoyl Glycinate sold by Clariant under the name Hostapon® SG, Sodium Cocoyl Isethionate sold by Clariant under the name Hostapon® SCI85 G, Sodium Lauroyl Methyl Isethionate sold by Innospec under the name Iselux® LG, Decyl Glucoside sold by Cognis under the name Plantacare® 2000 Up, Zinc Coceth Sulfate sold by Zschimmer & Schwarz under the name Zetesol® Zn, Glyceryl Monolaurate sold by Rossow under the name POEM® DL 100, and Disodium PEG-5 Laurylcitrate Sulfosuccinate sold by Evonik under the name Rewopol SB C55®.

Sodium C14-16 Olefin Sulfonate
retention of foaming and organoleptic properties (color, odor): retained its foaming properties and its organoleptic properties
